# Laboratory results as given in patent US5593984A, “Cephalosporin derivatives” (Yuhan Corporation, priority 1992, dated 1997).
# Legend:
# Format in all cases: cell-based
# Ent. aerogenes IFO 12979 = assay: MIC by agar dilution, Ent. aerogenes IFO 12979; conditions: Mueller-Hinton agar; for MIC: Klebsiella aerogenes, IFO12979, 17 h, read-out: Minimal Inhibitory Concentration (MIC)
# In short: (§1)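 Medium: Mueller-Hinton agar with compound in doubling dilutions. Inoculum: 10^6 CFU/ml. Incubation: 35°-37° C. for 17±1 hours.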
# Ps. aeruginosa DY-2 = assay: MIC by agar dilution, Ps. aeruginosa DY-2; conditions: Ps. aeruginosa DY-2, agar dilution, Mueller-Hinton agar; for MIC: Pseudomonas aeruginosa, DY2, 17 h, read-out: Minimal Inhibitory Concentration (MIC)
# In short: as §1
# [1] = system: Ps. aeruginosa NCTC 10490; assay: MIC by agar dilution, Ps. aeruginosa NCTC 10490; conditions: Mueller-Hinton agar; for MIC: Pseudomonas aeruginosa, NCTC10490, 17 h, read-out: Minimal Inhibitory Concentration (MIC)
# In short: as §1
# E. coli DY-1 = assay: MIC by agar dilution, E. coli DY-1; conditions: E. coli DY-1, agar dilution, Mueller-Hinton agar; for MIC: Escherichia coli, DY1, 17 h, read-out: Minimal Inhibitory Concentration (MIC)
# In short: as §1
# [2] = system: Ps. aeruginosa ATCC 10145; assay: MIC by agar dilution, Ps. aeruginosa ATCC 10145; conditions: Mueller-Hinton agar; for MIC: Pseudomonas aeruginosa, ATCC10145, 17 h, read-out: Minimal Inhibitory Concentration (MIC)
# In short: as §1
# E. coli No. 29 = assay: MIC by agar dilution, E. coli No. 29; conditions: E. coli No. 29, agar dilution, Mueller-Hinton agar; for MIC: Escherichia coli, 17 h, read-out: Minimal Inhibitory Concentration (MIC)
# In short: as §1
# B. subtilis ATCC 6633 = assay: MIC by agar dilution, B. subtilis ATCC 6633; conditions: B. subtilis ATCC 6633, agar dilution, Mueller-Hinton agar; for MIC: Bacillus subtilis, ATCC6633, 17 h, read-out: Minimal Inhibitory Concentration (MIC)
# In short: as §1
# Ent. cloacae IFO 13535 = assay: MIC by agar dilution, Ent. cloacae IFO 13535; conditions: Ent. cloacae IFO 13535, agar dilution, Mueller-Hinton agar; for MIC: Enterobacter cloacae, IFO13535, 17 h, read-out: Minimal Inhibitory Concentration (MIC)
# In short: as §1
# Staph. aureus C-57 = assay: MIC by agar dilution, Staph. aureus C-57; conditions: Mueller-Hinton agar; for MIC: Staphylococcus aureus, C57, 17 h, read-out: Minimal Inhibitory Concentration (MIC)
# In short: as §1
# Staph. aureus C-5216 = assay: MIC by agar dilution, Staph. aureus C-5216; conditions: Mueller-Hinton agar; for MIC: Staphylococcus aureus, C5216, 17 h, read-out: Minimal Inhibitory Concentration (MIC)
# In short: as §1
# E. coli NIHJ JC-2 = assay: MIC by agar dilution, E. coli NIHJ JC-2; conditions: E. coli NIHJ JC-2, agar dilution, Mueller-Hinton agar; for MIC: Escherichia coli, NIHJJC2, 17 h, read-out: Minimal Inhibitory Concentration (MIC)
# In short: as §1
# Staph. aureus Smith = assay: MIC by agar dilution, Staph. aureus Smith; conditions: Mueller-Hinton agar; for MIC: Staphylococcus aureus, 17 h, read-out: Minimal Inhibitory Concentration (MIC)
# In short: as §1
# Staph. aureus C-5113 = assay: MIC by agar dilution, Staph. aureus C-5113; conditions: Mueller-Hinton agar; for MIC: Staphylococcus aureus, C5113, 17 h, read-out: Minimal Inhibitory Concentration (MIC)
# In short: as §1
# [3] = system: S. epidermidis ATCC 12228; assay: MIC by agar dilution, S. epidermidis ATCC 12228; conditions: S. epidermidis ATCC 12228, agar dilution, Mueller-Hinton agar; for MIC: Staphylococcus epidermidis, ATCC12228, 17 h, read-out: Minimal Inhibitory Concentration (MIC)
# In short: as §1
# K. pneumoniae NCTC 9632 = assay: MIC by agar dilution, K. pneumoniae NCTC 9632; conditions: K. pneumoniae NCTC 9632, agar dilution, Mueller-Hinton agar; for MIC: Klebsiella pneumoniae, NCTC9632, 17 h, read-out: Minimal Inhibitory Concentration (MIC)
# In short: as §1
# [4] = system: Ser. marcescens IFO 12648; assay: MIC by agar dilution, Ser. marcescens IFO 12648; conditions: Ser. marcescens IFO 12648, agar dilution, Mueller-Hinton agar; for MIC: Serratia marcescens, IFO12648, 17 h, read-out: Minimal Inhibitory Concentration (MIC)
# In short: as §1
# M. morganii DY-1 = assay: MIC by agar dilution, M. morganii DY-1; conditions: M. morganii DY-1, agar dilution, Mueller-Hinton agar; for MIC: Morganella morganii, DY1, 17 h, read-out: Minimal Inhibitory Concentration (MIC)
# In short: as §1
# Prov. stuartii IFO 12930 = assay: MIC by agar dilution, Prov. stuartii IFO 12930; conditions: Mueller-Hinton agar; for MIC: Providencia stuartii, IFO12930, 17 h, read-out: Minimal Inhibitory Concentration (MIC)
# In short: as §1
# Staph. aureus ATCC 6538P = assay: MIC by agar dilution, Staph. aureus ATCC 6538P; conditions: Staph. aureus ATCC 6538P, agar dilution, Mueller-Hinton agar; for MIC: Staphylococcus aureus, ATCC6538P, 17 h, read-out: Minimal Inhibitory Concentration (MIC)
# In short: as §1
# P. vulgaris NCTC 8313 = assay: MIC by agar dilution, P. vulgaris NCTC 8313; conditions: P. vulgaris NCTC 8313, agar dilution, Mueller-Hinton agar; for MIC: Proteus vulgaris, NCTC8313, 17 h, read-out: Minimal Inhibitory Concentration (MIC)
# In short: as §1
MIC (Ent. aerogenes IFO 12979),MIC (Ps. aeruginosa DY-2),MIC [1],MIC (E. coli DY-1),MIC [2],MIC (E. coli No. 29),MIC (B. subtilis ATCC 6633),MIC (Ent. cloacae IFO 13535),MIC (Staph. aureus C-57),MIC (Staph. aureus C-5216),MIC (E. coli NIHJ JC-2),MIC (Staph. aureus Smith),MIC (Staph. aureus C-5113),MIC [3],MIC (K. pneumoniae NCTC 9632),MIC [4],MIC (M. morganii DY-1),MIC (Prov. stuartii IFO 12930),MIC (Staph. aureus ATCC 6538P),MIC (P. vulgaris NCTC 8313),Compound,also measured
0.05 µg/mL,3.13 µg/mL,0.2 µg/mL,≤ 0.006 µg/mL,3.13 µg/mL,≤ 0.006 µg/mL,0.1 µg/mL,0.2 µg/mL,12.5 µg/mL,0.78 µg/mL,0.025 µg/mL,0.1 µg/mL,0.39 µg/mL,0.05 µg/mL,0.025 µg/mL,0.05 µg/mL,0.012 µg/mL,0.025 µg/mL,0.1 µg/mL,≤ 0.006 µg/mL,"CCON=C(C(=O)NC1C(=O)N2C(C(=O)[O-])=C(C[n+]3ccn4c(SCCO)ccc4c3)CSC12)c1csc(N)n1 (stereo not drawn) [Ex. 9, 7-β-[(Z)-2-(2-aminothiazol-4-yl)-2-ethoxyiminoacetamido]-3-[6-(2-HYDROXYETHYLTHIO)PYRROLO[1,2-a]pyrazinium-2-yl]methyl-3-cephem-4-carboxylate]",–
0.012 µg/mL,3.13 µg/mL,0.39 µg/mL,0.012 µg/mL,1.56 µg/mL,0.012 µg/mL,0.1 µg/mL,0.2 µg/mL,50 µg/mL,0.78 µg/mL,0.025 µg/mL,0.78 µg/mL,0.78 µg/mL,0.05 µg/mL,0.05 µg/mL,0.05 µg/mL,0.05 µg/mL,0.012 µg/mL,0.2 µg/mL,0.012 µg/mL,"CCON=C(C(=O)NC1C(=O)N2C(C(=O)[O-])=C(C[n+]3ccn4c(SCCN)ccc4c3)CSC12)c1csc(N)n1 (stereo not drawn) [Ex. 28, 7-β-[(Z)-2-(2-aminothiazol-4-yl)2-ethoxyiminoacetamido]-3-[6-(2-aminoethylthio)pyrrolo[1,2-a]pyrazinium-2-yl]methyl-3-cephem-4-carboxylate]",–
–,–,–,–,–,–,–,–,–,–,–,–,–,–,–,–,–,–,–,–,"CCO/N=C(\C(=O)N[C@@H]1C(=O)N2C(C(=O)[O-])=C(C[n+]3ccn4c(C(N)=O)ccc4c3C)CS[C@H]12)c1csc(N)n1 [Ex. 44, 7-β-[(Z)-2-(2-aminothiazol-4-yl)-2-ethoxyiminoacetamido]-3-(6-carbamoyl-1-methylpyrrolo[1,2-a]pyrazinium-2-yl)methyl-3-cephem-4-carboxylate]",Minimal Inhibitory Concentration (MIC) (Ent. aerogenes IFO 12979): 0.050 µg/mL; Minimal Inhibitory Concentration (MIC) (Ps. aeruginosa DY-2): 6.250 µg/mL; Minimal Inhibitory Concentration (MIC) [1]: 0.780 µg/mL; Minimal Inhibitory Concentration (MIC) (E. coli DY-1): 0.025 µg/mL; Minimal Inhibitory Concentration (MIC) [2]: 3.130 µg/mL; Minimal Inhibitory Concentration (MIC) (E. coli No. 29): 0.025 µg/mL; Minimal Inhibitory Concentration (MIC) (B. subtilis ATCC 6633): 0.390 µg/mL; Minimal Inhibitory Concentration (MIC) (Ent. cloacae IFO 13535): 0.100 µg/mL; Minimal Inhibitory Concentration (MIC) (Staph. aureus C-57): 100.000 µg/mL; Minimal Inhibitory Concentration (MIC) (Staph. aureus C-5216): 1.560 µg/mL; Minimal Inhibitory Concentration (MIC) (E. coli NIHJ JC-2): 0.050 µg/mL; Minimal Inhibitory Concentration (MIC) (Staph. aureus Smith): 0.780 µg/mL; Minimal Inhibitory Concentration (MIC) (Staph. aureus C-5113): 1.560 µg/mL; Minimal Inhibitory Concentration (MIC) [3]: 0.100 µg/mL; Minimal Inhibitory Concentration (MIC) (K. pneumoniae NCTC 9632): 0.050 µg/mL; Minimal Inhibitory Concentration (MIC) [4]: 0.050 µg/mL; Minimal Inhibitory Concentration (MIC) (M. morganii DY-1): 0.100 µg/mL; Minimal Inhibitory Concentration (MIC) (Prov. stuartii IFO 12930): 0.012 µg/mL; Minimal Inhibitory Concentration (MIC) (Staph. aureus ATCC 6538P): 0.200 µg/mL; Minimal Inhibitory Concentration (MIC) (P. vulgaris NCTC 8313): 0.050 µg/mL
